We go through 24 compounds from patent US11612606B2, “8-aminoisoquinoline compounds and uses thereof” (priority 2018, dated 2023).

Each structure is given as a SMILES string. Structures can show the parent of a compound that is named as a salt. Some results are limits rather than exact numbers.

Sequence of HPK full length, T165E S171E (Q92918 whole entry T165E/S171E, looked up): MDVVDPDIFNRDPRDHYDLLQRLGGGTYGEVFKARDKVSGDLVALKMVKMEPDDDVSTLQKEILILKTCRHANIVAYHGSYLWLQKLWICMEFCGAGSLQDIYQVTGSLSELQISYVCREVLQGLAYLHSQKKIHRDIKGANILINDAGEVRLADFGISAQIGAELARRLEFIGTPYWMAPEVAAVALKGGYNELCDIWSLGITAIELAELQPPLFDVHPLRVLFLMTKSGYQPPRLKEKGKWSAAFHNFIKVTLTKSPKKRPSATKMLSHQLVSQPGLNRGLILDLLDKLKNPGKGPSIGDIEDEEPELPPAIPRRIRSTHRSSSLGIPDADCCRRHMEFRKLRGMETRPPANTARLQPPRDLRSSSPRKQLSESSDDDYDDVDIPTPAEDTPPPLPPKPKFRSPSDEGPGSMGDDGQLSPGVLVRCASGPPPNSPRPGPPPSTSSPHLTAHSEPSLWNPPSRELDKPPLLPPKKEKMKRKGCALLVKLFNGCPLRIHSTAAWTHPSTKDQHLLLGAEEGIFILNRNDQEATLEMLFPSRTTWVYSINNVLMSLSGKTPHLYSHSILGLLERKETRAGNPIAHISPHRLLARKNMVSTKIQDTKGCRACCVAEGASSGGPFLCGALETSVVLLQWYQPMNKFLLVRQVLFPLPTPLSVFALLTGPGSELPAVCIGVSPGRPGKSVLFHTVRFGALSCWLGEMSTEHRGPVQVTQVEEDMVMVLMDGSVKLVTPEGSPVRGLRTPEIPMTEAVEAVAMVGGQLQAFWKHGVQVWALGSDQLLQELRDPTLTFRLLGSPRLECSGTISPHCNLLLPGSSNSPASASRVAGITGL

One assay has as its target HPK full length, T165E S171E (Homo sapiens (Human), UniProt Q92918, S171E/T165E). As to the kind of experiment: HPK1-FL HTRF enzymatic assay ("HTRF"). The assay is classed as biochemical. As to conditions: ATP 1 mM, read-out: HPK1 Ki. The procedure, abridged: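 Full-length HPK1 (T165E/S171E) was preincubated 30 min with compound, then reacted 60 min with biotin-SLP-76 and 1 mM ATP. Phospho-SLP-76 was detected by HTRF (Eu-anti-pSLP76 antibody, SA-XL665) after a further 60 min.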
On to `Cc1c(-c2cc3cc(NC(=O)SC4CCOCC4)ncc3c(N)c2F)cnc2c1NCCO2` [Compound 601, S-Tetrahydropyran-4-yl N-[8-amino-7-fluoro-6-(8-methyl-2,3-dihydro-1H-pyrido[2,3-b][1,4]oxazin-7-yl)-3-isoquinolyl]carbamothioate], for which the Ki was below 0.013 nM.
On the same count and under the same terms, to `CC[C@]1(O)C[C@H](OC(=O)Nc2cc3cc(-c4cnc5c(c4C)NCCO5)c(F)c(N)c3cn2)C1` [Compound 512a, (1s,3r)-3-Ethyl-3-hydroxycyclobutyl (8-amino-7-fluoro-6-(8-methyl-2,3-dihydro-1H-pyrido[2,3-b][1,4]oxazin-7-yl)isoquinolin-3-yl)carbamate] belongs 0.015 nM.
On the same count and under the same terms, to `Cc1c(-c2cc3cc(NC(=O)O[C@@H]4CCN(C5COC5)C[C@@H]4F)ncc3c(N)c2F)cnc2c1NCCO2` [Compound 445c, (3S,4R)-3-Fluoro-1-(oxetan-3-yl)piperidin-4-yl (8-amino-7-fluoro-6-(8-methyl-2,3-dihydro-1H-pyrido[2,3-b][1,4]oxazin-7-yl)isoquinolin-3-yl)carbamate] belongs 0.015 nM; to `Cc1c(-c2cc3cc(NC(=O)O[C@@H]4CN(C)C[C@H]4C)ncc3c(N)c2F)cnc2c1NCCO2` (single isomer, unassigned) [Compound 442c], 0.154 nM; to `Cc1c(-c2cc3cc(NC(=O)O[C@H]4C[C@@H](C(=O)N(C)C)C4)ncc3c(N)c2F)cnc2c1NCCO2` [Compound 519a, (1s,3s)-3-(Dimethylcarbamoyl)cyclobutyl (8-amino-7-fluoro-6-(8-methyl-2,3-dihydro-1H-pyrido[2,3-b][1,4]oxazin-7-yl)isoquinolin-3-yl)carbamate], below 0.013 nM.
`Cc1c(-c2cc3cc(NC(=O)O[C@@H]4C[C@@](C)(O)[C@H]4C)ncc3c(N)c2F)cnc2c1NCCO2` [Compound 526d, (1R,2S,3R)-3-Hydroxy-2,3-dimethylcyclobutyl (8-amino-7-fluoro-6-(8-methyl-2,3-dihydro-1H-pyrido[2,3-b][1,4]oxazin-7-yl)isoquinolin-3-yl)carbamate]: the Ki came out at 0.018 nM.
Regarding `Cc1c(-c2cc3cc(NC(=O)O[C@H](C)CN(C)C)ncc3c(N)c2F)cnc2c1NCCO2` (single isomer, unassigned) [Compound 523a], the Ki came to 0.85 nM.
On the same count and under the same terms, next, `Cc1c(N)cncc1-c1cc2cc(NC(=O)O[C@@H]3COC[C@H]3C)ncc2c(N)c1F` (single isomer, unassigned) [Compound 544b]: 2.7 nM.
For the compound `CC(=O)N1CC[C@@H](OC(=O)Nc2cc3cc(-c4cnc5c(c4C)NCCO5)c(F)c(N)c3cn2)[C@@H](F)C1` (single isomer, unassigned) [Compound 437b], the Ki amounted to 0.054 nM.
The same measure, in the same setting: to `Cc1c(-c2cc3cc(NC(=O)O[C@H]4CCC5(CCN(C6COC6)CC5)C4)ncc3c(N)c2F)cnc2c1NCCO2` (single isomer, unassigned) [Compound 511b] belongs 0.017 nM; to `Cc1c(-c2cc3cc(NC(=O)OC4CC5(CCN(C)CC5)C4)ncc3c(N)c2F)cnc2c1NCCC2` [Compound 423, (7-Methyl-7-azaspiro[3.5]nonan-2-yl) N-[8-amino-7-fluoro-6-(4-methyl-5,6,7,8-tetrahydro-1,5-naphthyridin-3-yl)-3-isoquinolyl]carbamate], below 0.013 nM.
Still for that read-out and setting: to `Cc1c(-c2cc3cc(NC(=O)O[C@@H]4CC[C@](C)(O)C4)ncc3c(N)c2F)cnc2c1NCCO2` (single isomer, unassigned) [Compound 533d, hydrochloride] belongs 0.015 nM; to `CC(=O)N1CC2(CC(NC(=O)Nc3cc4cc(-c5cnc6c(c5C)NCCO6)c(F)c(N)c4cn3)C2)C1` [Compound 709, 1-(2-Acetyl-2-azaspiro[3.3]heptan-6-yl)-3-(8-amino-7-fluoro-6-(8-methyl-2,3-dihydro-1H-pyrido[2,3-b][1,4]oxazin-7-yl)isoquinolin-3-yl)urea], below 0.013 nM; to `Cc1c(-c2cc3cc(NC(=O)O[C@@H]4CCN(C)C4)ncc3c(N)c2F)cnc2c1NCCO2` [Compound 411b, (R)-1-Methylpyrrolidin-3-yl (8-amino-7-fluoro-6-(8-methyl-2,3-dihydro-1H-pyrido[2,3-b][1,4]oxazin-7-yl)isoquinolin-3-yl)carbamate], 0.2 nM.
The same measure, in the same setting: to `Cc1c(-c2cc3cc(NC(=O)O[C@@H]4COC[C@H]4C4CC4)ncc3c(N)c2F)cnc2c1NCCO2` (single isomer, unassigned) [Compound 516b] belongs below 0.013 nM; to `Cc1c(-c2cc3cc(NC(=O)N[C@@H]4CCC[C@@H]4F)ncc3c(N)c2F)cnc2c1NCCO2` [Compound 727a, 1-[8-Amino-7-fluoro-6-(8-methyl-2,3-dihydro-1H-pyrido[2,3-b][1,4]oxazin-7-yl)-3-isoquinolyl]-3-[(1R,2S)-2-fluorocyclopentyl]urea], below 0.013 nM.
For the compound `Cc1c(-c2cc3cc(NC(=O)O[C@@H]4CC(=O)N(C)C4)ncc3c(N)c2F)cnc2c1NCCC2` (single isomer, unassigned) [Compound 481b], the Ki is 0.018 nM.
As for `Cc1c(-c2cc3cc(NC(=O)OC4CN(C)CCN(C)C4)ncc3c(N)c2F)cnc2c1NCCO2` [Compound 465, 1,4-Dimethyl-1,4-diazepan-6-yl (8-amino-7-fluoro-6-(8-methyl-2,3-dihydro-1H-pyrido[2,3-b][1,4]oxazin-7-yl)isoquinolin-3-yl)carbamate], the Ki was determined as 0.46 nM.
As for `Cc1c(-c2cc3cc(NC(=O)N[C@@H]4COC[C@@H]4F)ncc3c(N)c2F)cnc2c1NCCO2` (single isomer, unassigned) [Compound 724b], the inhibitory constant (Ki) came out at 0.019 nM.
In the case of `CCN1C[C@@H](OC(=O)Nc2cc3cc(-c4cnc5c(c4C)NCCO5)c(F)c(N)c3cn2)CC1=O` (single isomer, unassigned) [Compound 478b, (5)-1-Ethyl-5-oxopyrrolidin-3-yl (8-amino-7-fluoro-6-(8-methyl-2,3-dihydro-1H-pyrido[2,3-b][1,4]oxazin-7-yl)isoquinolin-3-yl)carbamate], the inhibition constant (Ki) is below 0.013 nM.
The same measure, in the same setting: next, `CC(=O)N1CC2(CC(OC(=O)Nc3cc4cc(-c5cnc6c(c5C)NCCO6)c(F)c(N)c4cn3)C2)C1` [Compound 424, 2-Acetyl-2-azaspiro[3.3]heptan-6-yl (8-amino-7-fluoro-6-(8-methyl-2,3-dihydro-1H-pyrido[2,3-b][1,4]oxazin-7-yl)isoquinolin-3-yl)carbamate]: below 0.013 nM.
Still for that read-out and setting: to `Cc1c(-c2cc3cc(NC(=O)O[C@H]4CCN([C@H]5CCOC5)C[C@H]4F)ncc3c(N)c2F)cnc2c1NCCO2` [Compound 569c, (3R,4S)-3-fluoro-1-((S)-tetrahydrofuran-3-yl)piperidin-4-yl (8-amino-7-fluoro-6-(8-methyl-2,3-dihydro-1H-pyrido[2,3-b][1,4]oxazin-7-yl)isoquinolin-3-yl)carbamate] belongs 0.029 nM; to `Cc1c(-c2cc3cc(NC(=O)N[C@@H]4C[C@@H]4C)ncc3c(N)c2F)cnc2c1NCCO2` (single isomer, unassigned) [Compound 736b], below 0.013 nM.

Staying with this assay, now noted: HPK1 Ki, ATP 1 mM.
`Cc1c(-c2cc3cc(NC(=O)O[C@@H]4CCOC4)ncc3c(N)c2F)cnc2c1[C@@H](O)CC2` [Compound 548a, (R)-tetrahydrofuran-3-yl (8-amino-7-fluoro-6-((S)-5-hydroxy-4-methyl-6,7-dihydro-5H-cyclopenta[b]pyridin-3-yl)isoquinolin-3-yl)carbamate] registered a Ki of 1.7 nM.

Broadly, the Ki is the dissociation constant of the complex between target and ligand, obtained from inhibition or displacement.
